# Test results as given in patent US20230346797A1, “INHIBITORS OF THE PLASMODIAL SURFACE ANION CHANNEL AS ANTIMALARIALS” (The United States of America,as represented by the …, priority 2008, published 2023).
# Key:
# P. falciparum [1] = assay: In vitro parasite growth inhibition, SYBR Green I-based fluorescence assay for parasite nucleic acid; assay type: cell-based; conditions: Plasmodium falciparum, 72 h; 3 days culture; read-out: In vitro growth inhibitory IC50
# P. falciparum [2] = assay: In vitro parasite growth inhibition by combinations of two PSAC antagonists (isobologram)
# Procedure: Parasite killing by identified PSAC antagonists was evaluated using a SYBR Green I-based fluorescence assay for parasite nucleic acid in 96-well format. […] Cultures were maintained for 3 days at 37° C. in 5% 02, 5% CO2. […] For each antagonist concentration, the mean of triplicate measurements was calculated after subtraction of background fluorescence from cultures killed by 20 μM chloroquine, a known antimalarial agent.
# The solid line represents the line of additive killing.
# [3] = in combination with compound 11 (Comp. A)
# [4] = in combination with compound 24 (Comp. A)
# [5] = in combination with compound 26 (Comp. A)
# [6] = in combination with compound 31 (Comp. A)
SMILES,IC50 (P. falciparum [1]) [µM],further results
Cc1cccc(N2CCN(C(=O)c3ccc4c(c3)NC(=O)c3ccccc3S4)CC2)c1C [Compound 2],1,–
O=C1Nc2cc(C(=O)N3CCN(c4ccccc4)CC3)ccc2Sc2ccccc21 [Compound 3],0.67,–
Cc1ccc(C)c(N2CCN(C(=O)c3ccc4c(c3)NC(=O)c3ccccc3S4)CC2)c1 [Compound 5],1.33,–
O=C1Nc2cc(C(=O)N3CCC(N4CCCCC4)CC3)ccc2Sc2ccccc21 [Compound 9],6.9,–
O=C1Nc2cc(C(=O)N3CCC(Cc4ccccc4)CC3)ccc2Sc2ccccc21 [Compound 10],3.01,–
CCC(Cc1ccccc1)NC(=O)c1ccc2c(c1)NC(=O)c1ccccc1S2 (stereo not shown) [Compound 11],3,–
CCOc1ccc(C(=O)Nc2ccc(-c3nn4c(C)nnc4s3)cc2)cc1 [Compound 13],3.85,parasite killing by combination (P. falciparum [2]; [3]): S; parasite killing by combination (P. falciparum [2]; [4]): S; parasite killing by combination (P. falciparum [2]; [5]): S; parasite killing by combination (P. falciparum [2]; [6]): S; parasite killing by combination (P. falciparum [2]; in combination with compound 32 (Comp. A)): S; parasite killing by combination (P. falciparum [2]; in combination with compound 33 (Comp. A)): S; parasite killing by combination (P. falciparum [2]; in combination with compound 34 (Comp. A)): S
O=C(COc1ccc2ccccc2c1)Nc1cccc(-c2nc3ncccc3o2)c1 [Compound 15],6,–
COc1ccc(OCC(=O)Nc2ccc(-c3nn4c(C)nnc4s3)cc2)cc1 [Compound 16],4.98,parasite killing by combination (P. falciparum [2]; [4]): S; parasite killing by combination (P. falciparum [2]; in combination with compound 35 (Comp. A)): S
CCc1nnc2sc(-c3ccc(NC(=O)c4ccc(N5CCCC5)c([N+](=O)[O-])c4)cc3)nn12 [Compound 17],39,–
CCCCOc1ccc(C(=O)Nc2ccc(-c3nn4c(C)nnc4s3)cc2)cc1 [Compound 18],2.14,"parasite killing by combination, isobologram (FIG. 3C) (P. falciparum [2]; in combination with compound 24 (component A antagonist), mixtures producing 50% parasite killing): synergistic parasite killing"
Cc1nnc2sc(-c3ccc(NC(=O)c4ccc(Br)o4)cc3)nn12 [Compound 19],2.74,–
Cc1cc(-c2nn3c(C)nnc3s2)ccc1NC(=O)c1ccco1 [Compound 20],21.6,–
O=C(Nc1ccc(-c2noc(-c3cccs3)n2)cc1)c1cccnc1 [Compound 21],10,parasite killing by combination (P. falciparum [2]; [4]): S
CCCCCC(=O)Nc1cc(-c2nn3c(C)nnc3s2)ccc1C [Compound 22],21.5,–
Cc1cc(-c2nn3c(C)nnc3s2)ccc1NC(=O)C(C)C [Compound 23],36.7,–
COc1ccc2cc3cc(C(=O)N(C)C4CCCCC4)oc3nc2c1 [Compound 25],4,parasite killing by combination (P. falciparum [2]; [3]): S; parasite killing by combination (P. falciparum [2]; [4]): S; parasite killing by combination (P. falciparum [2]; [5]): S; parasite killing by combination (P. falciparum [2]; [6]): S
CCCN(C(=O)c1cc2cc3ccc(C)cc3nc2o1)c1cccc(C)c1 [Compound 26],6.9,–
COc1ccc(-c2nc3c(=O)[nH]c4ccccc4c3s2)cc1 [Compound 32],3,–
COc1ccc(-c2nc3c(=O)n(C)c4ccccc4c3o2)cc1 [Compound 33],> 20,–
CCCCCn1c(=O)c2nc(-c3ccc(OC)cc3)oc2c2ccccc21 [Compound 34],15,–
COc1cc(OC)nc(Sc2ccc(NC(=O)c3ccc(C(C)(C)C)cc3)cc2)n1 [Compound 36],–,parasite killing by combination (P. falciparum [2]; [4]): S
